Data set [1] can be described thus: in vivo. Particulars: mouse, plasma, po, 20 mg/kg.
Description: Plasma concentration in mouse at 20 mg/kg, po after 2 hrs
Data set [2] can be described thus: in vivo. Particulars: mouse, plasma, po, 20 mg/kg. This is another data set of the same source.
Description: Plasma concentration in mouse at 20 mg/kg, po after 6 hrs

Among the data in ChEMBL document CHEMBL3734690, “Design, Synthesis, and Biological Evaluation of Indole Biphenylcarboxylic Acids as PPARγ Antagonists” (ACS Med Chem Lett, 2015) are concentration values, retold here.

The structures appear in SMILES notation.

Compound `Cc1c(C)n(Cc2ccc(-c3ccccc3-c3n[nH]c(=O)o3)cc2)c2ccc(C(=O)N[C@@H](C)c3cccc(C(C)C)c3)cc12` had a concentration at 2 h in “in vivo [1]” of 200 nM. Further, in “in vivo [2]”, the concentration at 6 h was 10 nM.
The compound `Cc1c(C)n(Cc2ccc(-c3ccccc3C(=O)O)cc2)c2ccc(C(=O)N[C@@H](C)c3cccc(C4CC4)c3)cc12` showed a concentration at 2 h in the data set “in vivo [1]” of 19000 nM. For the same compound, the concentration at 6 h in the data set “in vivo [2]” stood at 2400 nM.
For `Cc1c(C)n(Cc2ccc(-c3ccccc3C(=O)NO)cc2)c2ccc(C(=O)N[C@@H](C)c3cccc(C(C)C)c3)cc12`, in that order: 400 nM and 30 nM.
For `Cc1c(C)n(Cc2ccc(-c3ccccc3C(N)=O)cc2)c2ccc(C(=O)N[C@@H](C)c3cccc(C(C)C)c3)cc12`, in that order: 2500 nM and 100 nM.
For `Cc1c(C)n(Cc2ccc(-c3ccccc3C(=O)O)cc2)c2ccc(C(=O)N[C@@H](C)c3ccc(C(C)(C)C)cc3)cc12`, in that order: 5600 nM and 1900 nM.
